# Source: US12498382B2, “Biomarkers for vitiligo” (INCYTE CORPORATION, priority 2019, dated 2025)
# System: HaCaT cells
# Experiment: Concentrations of inflammatory mediators produced by HaCaT cells stimulated with TNFα and IFNγ in presence/absence of JAK inhibitors (ProCarta)
# Type: cell-based, human
# Outline: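 Mediator levels (pg/mL) in culture media quantified by multiplex Luminex bead assay against standard curves. Media collected after 24 h at 37 °C from HaCaT cells exposed to 25 ng/mL each of IFNγ and TNFα following 15 min drug pre-incubation; drug final concentrations 25–200 nM (25, 50, 100, 200 nM).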
# [1] = TNFα 25 ng/mL + IFNγ 25 ng/mL, drug 100 nM
# [2] = TNFα 25 ng/mL + IFNγ 25 ng/mL, drug 200 nM
compound,measurement,setting,value
N#CCC1(n2cc(-c3ncnc4[nH]ccc34)cn2)CN(C2CCN(C(=O)c3ccnc(C(F)(F)F)c3F)CC2)C1 [Cpc B],IL15 concentration,[1],2.58 ± 0.68 pg/mL
same,IL17A concentration,[1],4.84 ± 0.34 pg/mL
same,IL18 concentration,[1],156.06 ± 3.24 pg/mL
same,IL21 concentration,[1],2.36 ± 0.35 pg/mL
same,IL22 concentration,[1],8.03 ± 0.87 pg/mL
same,IL23 concentration,[1],6.44 ± 0.69 pg/mL
same,IL27 concentration,[1],5.36 ± 0.73 pg/mL
same,IL31 concentration,[1],3.35 ± 0.44 pg/mL
same,IP-10/CXCL10 concentration,[1],4050.7 ± 471.31 pg/mL
same,LIF concentration,[1],70.3 ± 3.65 pg/mL
same,MCP1 concentration,[1],15200 ± 0 pg/mL
same,MIP1 alpha concentration,[1],91.52 ± 5.05 pg/mL
same,MIP1 beta concentration,[1],323.13 ± 6.82 pg/mL
same,PDGF-BB concentration,[1],5.4 ± 0.16 pg/mL
same,PIGF-1 concentration,[1],54.67 ± 3.27 pg/mL
same,RANTES concentration,[1],194.21 ± 12.67 pg/mL
same,SCF concentration,[1],4.26 ± 0.17 pg/mL
same,SDF-1 alpha concentration,[1],3471.01 ± 111.77 pg/mL
same,TNF alpha concentration,[1],11722.68 ± 1259.67 pg/mL
same,TNF beta concentration,[1],4 ± 0.51 pg/mL
same,VEGF-A concentration,[1],1262.01 ± 46.28 pg/mL
same,VEGF-D concentration,[1],8.71 ± 0.65 pg/mL
same,bNGF concentration,[1],7.04 ± 0.59 pg/mL
same,BDNF concentration,[2],4.1 ± 0.24 pg/mL
same,EGF concentration,[2],1.52 ± 0.1 pg/mL
same,Eotaxin concentration,[2],10.05 ± 0.19 pg/mL
same,FGF-2 concentration,[2],21.39 ± 1.61 pg/mL
same,GM-CSF concentration,[2],134.13 ± 3.74 pg/mL
same,GRO alpha concentration,[2],563.61 ± 42.17 pg/mL
same,HGF concentration,[2],13.5 ± 0.57 pg/mL
same,IFN alpha concentration,[2],0.26 ± 0 pg/mL
same,IFN gamma concentration,[2],25272.53 ± 3796.83 pg/mL
same,IL1RA concentration,[2],5710.44 ± 269.38 pg/mL
same,IL1 alpha concentration,[2],6.16 ± 0.35 pg/mL
same,IL1 beta concentration,[2],8.43 ± 0.29 pg/mL
same,IL2 concentration,[2],31.86 ± 1.25 pg/mL
same,IL4 concentration,[2],6.42 ± 1.24 pg/mL
same,IL5 concentration,[2],25.88 ± 1.37 pg/mL
same,IL6 concentration,[2],568.73 ± 24.74 pg/mL
same,IL7 concentration,[2],2.09 ± 0.14 pg/mL
same,IL8 concentration,[2],3023.88 ± 193.36 pg/mL
same,IL9 concentration,[2],3.28 ± 0.35 pg/mL
same,IL10 concentration,[2],0.84 ± 0.06 pg/mL
same,IL12p70 concentration,[2],1.87 ± 0.16 pg/mL
same,IL13 concentration,[2],2.52 ± 0.3 pg/mL
same,IL15 concentration,[2],2.57 ± 0.54 pg/mL
same,IL17A concentration,[2],4.43 ± 0.26 pg/mL
same,IL18 concentration,[2],159.36 ± 4.73 pg/mL
same,IL21 concentration,[2],2.47 ± 0.28 pg/mL
same,IL22 concentration,[2],7.74 ± 0.78 pg/mL
same,IL23 concentration,[2],7.41 ± 0.5 pg/mL
same,IL27 concentration,[2],8.04 ± 1.65 pg/mL
same,IL31 concentration,[2],3.93 ± 0.4 pg/mL
same,IP-10/CXCL10 concentration,[2],4071.78 ± 411.22 pg/mL
same,LIF concentration,[2],71.92 ± 2.82 pg/mL
same,MCP1 concentration,[2],17302.89 ± 2102.89 pg/mL
same,MIP1 alpha concentration,[2],83.1 ± 2.77 pg/mL
same,MIP1 beta concentration,[2],318.83 ± 8.71 pg/mL
same,PDGF-BB concentration,[2],5.28 ± 0.15 pg/mL
same,PIGF-1 concentration,[2],54.61 ± 2.69 pg/mL
same,RANTES concentration,[2],183.18 ± 13.92 pg/mL
same,SCF concentration,[2],4.2 ± 0.17 pg/mL
same,SDF-1 alpha concentration,[2],3481.04 ± 134.24 pg/mL
same,TNF alpha concentration,[2],11233.91 ± 945.2 pg/mL
same,TNF beta concentration,[2],4.42 ± 0.45 pg/mL
same,VEGF-A concentration,[2],1232.36 ± 49.33 pg/mL
same,VEGF-D concentration,[2],9.12 ± 0.78 pg/mL
same,bNGF concentration,[2],6.52 ± 0.69 pg/mL
same,BDNF concentration,"no stimulation, drug 200 nM",5.35 ± 0.34 pg/mL
same,EGF concentration,"no stimulation, drug 200 nM",1.06 ± 0.14 pg/mL
same,Eotaxin concentration,"no stimulation, drug 200 nM",2.22 ± 0.09 pg/mL
same,FGF-2 concentration,"no stimulation, drug 200 nM",8.5 ± 0.95 pg/mL
same,GM-CSF concentration,"no stimulation, drug 200 nM",8.69 ± 1.22 pg/mL
same,GRO alpha concentration,"no stimulation, drug 200 nM",228.97 ± 14.45 pg/mL
same,HGF concentration,"no stimulation, drug 200 nM",4.44 ± 0.32 pg/mL
same,IFN alpha concentration,"no stimulation, drug 200 nM",0.23 ± 0.02 pg/mL
same,IFN gamma concentration,"no stimulation, drug 200 nM",3.39 ± 0.69 pg/mL
same,IL1RA concentration,"no stimulation, drug 200 nM",502.58 ± 57.22 pg/mL
same,IL1 alpha concentration,"no stimulation, drug 200 nM",0.29 ± 0.03 pg/mL
same,IL1 beta concentration,"no stimulation, drug 200 nM",0.98 ± 0.14 pg/mL
same,IL2 concentration,"no stimulation, drug 200 nM",3.32 ± 0.6 pg/mL
same,IL4 concentration,"no stimulation, drug 200 nM",4.61 ± 0.7 pg/mL
same,IL5 concentration,"no stimulation, drug 200 nM",2.84 ± 0.38 pg/mL
same,IL6 concentration,"no stimulation, drug 200 nM",26.86 ± 2.62 pg/mL
same,IL7 concentration,"no stimulation, drug 200 nM",3.03 ± 0.2 pg/mL
same,IL8 concentration,"no stimulation, drug 200 nM",261.92 ± 12.12 pg/mL
same,IL9 concentration,"no stimulation, drug 200 nM",3.91 ± 0.48 pg/mL
same,IL10 concentration,"no stimulation, drug 200 nM",0.32 ± 0.07 pg/mL
same,IL12p70 concentration,"no stimulation, drug 200 nM",1.55 ± 0.29 pg/mL
same,IL13 concentration,"no stimulation, drug 200 nM",1.14 ± 0.13 pg/mL
same,IL15 concentration,"no stimulation, drug 200 nM",2.22 ± 0.42 pg/mL
same,IL17A concentration,"no stimulation, drug 200 nM",1.2 ± 0.29 pg/mL
same,IL18 concentration,"no stimulation, drug 200 nM",6.04 ± 0.5 pg/mL
same,IL21 concentration,"no stimulation, drug 200 nM",2.43 ± 0.31 pg/mL
same,IL22 concentration,"no stimulation, drug 200 nM",8.13 ± 0.77 pg/mL
same,IL23 concentration,"no stimulation, drug 200 nM",5.8 ± 1.11 pg/mL
same,IL27 concentration,"no stimulation, drug 200 nM",7.57 ± 2.22 pg/mL
same,IL31 concentration,"no stimulation, drug 200 nM",3.01 ± 0.44 pg/mL
same,IP-10/CXCL10 concentration,"no stimulation, drug 200 nM",19.75 ± 0.42 pg/mL
same,LIF concentration,"no stimulation, drug 200 nM",23.25 ± 0.99 pg/mL
same,MCP1 concentration,"no stimulation, drug 200 nM",1125.31 ± 55.12 pg/mL
same,MIP1 alpha concentration,"no stimulation, drug 200 nM",2.63 ± 0.35 pg/mL
same,MIP1 beta concentration,"no stimulation, drug 200 nM",113.94 ± 3.76 pg/mL
same,PDGF-BB concentration,"no stimulation, drug 200 nM",2.15 ± 0.13 pg/mL
same,PIGF-1 concentration,"no stimulation, drug 200 nM",20.17 ± 1.26 pg/mL
same,RANTES concentration,"no stimulation, drug 200 nM",8.42 ± 0.51 pg/mL
same,SCF concentration,"no stimulation, drug 200 nM",1.93 ± 0.13 pg/mL
same,SDF-1 alpha concentration,"no stimulation, drug 200 nM",1003.25 ± 40.97 pg/mL
same,TNF alpha concentration,"no stimulation, drug 200 nM",2.4 ± 0.71 pg/mL
same,TNF beta concentration,"no stimulation, drug 200 nM",4.7 ± 0.28 pg/mL
same,VEGF-A concentration,"no stimulation, drug 200 nM",554.18 ± 29.76 pg/mL
same,VEGF-D concentration,"no stimulation, drug 200 nM",3.19 ± 0.57 pg/mL
same,bNGF concentration,"no stimulation, drug 200 nM",3.84 ± 0.71 pg/mL
